Experimental data reported in the NIST ThermoML archive (doi:10.1016/j.tca.2010.07.027).
Numbers after ± are expanded uncertainties.

Key:
[1] = Liquid; for speed of sound / mass density: 298.15 K, 101.33 kPa; for speed of sound: Linear variable-path acoustic interferometer; for mass density: Pycnometric method; for vapor or sublimation pressure: 308.15 K, Closed cell (Static) method
[2] = excess molar enthalpy (molar enthalpy of mixing); xn = mol fraction of the nth substance listed; conditions: 308.15 K, Liquid, 2-drop calorimeter
[3] = xn = mol fraction of the nth substance listed; conditions: 308.15 K, Liquid; for speed of sound: Frequency=2 MHz, Linear variable-path acoustic interferometer

C1COCO1 [1,3-dioxolane]
speed of sound [1]: 1388 ± 3 m/s
mass density [1]: 1047.2 ± 1.1 kg/m3
vapor or sublimation pressure [1]: 21.5 ± 1.1 kPa

Cc1ccccc1N [2-methylaniline]
speed of sound [1]: 1602 ± 3 m/s
mass density [1]: 994.2 ± 1 kg/m3
vapor or sublimation pressure [1]: 0.1067 ± 0.13 kPa

Cc1ccccc1N [2-methylaniline] + C1COCO1
excess molar enthalpy ([2]; x2 = 0.0754): -0.0527 ± 0.0012 kcal/mol
excess molar enthalpy ([2]; x2 = 0.1632): -0.111 ± 0.00239 kcal/mol
excess molar enthalpy ([2]; x2 = 0.2424): -0.155 ± 0.00335 kcal/mol
excess molar enthalpy ([2]; x2 = 0.3213): -0.188 ± 0.00406 kcal/mol
excess molar enthalpy ([2]; x2 = 0.4001): -0.209 ± 0.00454 kcal/mol
excess molar enthalpy ([2]; x2 = 0.4843): -0.217 ± 0.00454 kcal/mol
excess molar enthalpy ([2]; x2 = 0.5655): -0.208 ± 0.00454 kcal/mol
excess molar enthalpy ([2]; x2 = 0.6112): -0.198 ± 0.0043 kcal/mol
excess molar enthalpy ([2]; x2 = 0.6979): -0.166 ± 0.00359 kcal/mol
excess molar enthalpy ([2]; x2 = 0.7432): -0.145 ± 0.00311 kcal/mol
excess molar enthalpy ([2]; x2 = 0.808): -0.112 ± 0.00239 kcal/mol
excess molar enthalpy ([2]; x2 = 0.8831): -0.0672 ± 0.00151 kcal/mol
excess molar enthalpy ([2]; x2 = 0.9311): -0.039 ± 0.000908 kcal/mol
excess molar enthalpy ([2]; x2 = 0.9621): -0.0207 ± 0.000526 kcal/mol
speed of sound ([3]; x2 = 0.1122): 1539 ± 3 m/s
speed of sound ([3]; x2 = 0.1891): 1526 ± 3 m/s
speed of sound ([3]; x2 = 0.2413): 1516 ± 3 m/s
speed of sound ([3]; x2 = 0.2911): 1506 ± 3 m/s
speed of sound ([3]; x2 = 0.3212): 1500 ± 3 m/s
speed of sound ([3]; x2 = 0.4011): 1484 ± 3 m/s
speed of sound ([3]; x2 = 0.4513): 1473 ± 3 m/s
speed of sound ([3]; x2 = 0.5651): 1444 ± 3 m/s
speed of sound ([3]; x2 = 0.6637): 1415 ± 3 m/s
speed of sound ([3]; x2 = 0.6989): 1404 ± 3 m/s
speed of sound ([3]; x2 = 0.7512): 1386 ± 3 m/s
speed of sound ([3]; x2 = 0.8319): 1358 ± 3 m/s
speed of sound ([3]; x2 = 0.9071): 1330 ± 3 m/s
speed of sound ([3]; x2 = 0.9713): 1306 ± 3 m/s
excess molar volume ([3]; x2 = 0.0549): -8.4e-08 ± 6e-09 m3/mol
excess molar volume ([3]; x2 = 0.1721): -2.51e-07 ± 7e-09 m3/mol
excess molar volume ([3]; x2 = 0.2239): -3.12e-07 ± 7e-09 m3/mol
excess molar volume ([3]; x2 = 0.2769): -3.75e-07 ± 7e-09 m3/mol
excess molar volume ([3]; x2 = 0.351): -4.43e-07 ± 7e-09 m3/mol
excess molar volume ([3]; x2 = 0.4217): -4.86e-07 ± 7e-09 m3/mol
excess molar volume ([3]; x2 = 0.5518): -5.12e-07 ± 7e-09 m3/mol
excess molar volume ([3]; x2 = 0.5889): -5.12e-07 ± 7e-09 m3/mol
excess molar volume ([3]; x2 = 0.6218): -4.97e-07 ± 7e-09 m3/mol
excess molar volume ([3]; x2 = 0.6831): -4.66e-07 ± 7e-09 m3/mol
excess molar volume ([3]; x2 = 0.7523): -4.07e-07 ± 7e-09 m3/mol
excess molar volume ([3]; x2 = 0.8147): -3.28e-07 ± 7e-09 m3/mol
excess molar volume ([3]; x2 = 0.8916): -2.16e-07 ± 6e-09 m3/mol
excess molar volume ([3]; x2 = 0.9407): -1.23e-07 ± 6e-09 m3/mol

CNc1ccccc1 [N-methylaniline]
speed of sound [1]: 1572 ± 3 m/s
mass density [1]: 982.4 ± 1.6 kg/m3
vapor or sublimation pressure [1]: 0.0667 ± 0.13 kPa
